From patent US6903132B2, “Non-peptide GnRH agents, pharmaceutical compositions and methods for their use” (Agouron Pharmaceuticals, Inc., priority 2002, dated 2005)
Values joined by “and” are separate entries in the source; they are usually repeats but may differ in a detail not shown here. Equal entries are not always repeated.

What was measured:
[1] = target: T1, human GnRH receptors (Homo sapiens, UniProt P30968); test: Radioligand binding assay: inhibition of binding of 125I-GnRH-A to GnRH receptors (membranes); conditions: Human GnRH receptor; competition with 125I-GnRH-A; Ki calculated from IC50 (Cheng et al.)
T1 construct: expressed in transfected cells; host or cells: HEK 293
T1 sequence (P30968 1-328): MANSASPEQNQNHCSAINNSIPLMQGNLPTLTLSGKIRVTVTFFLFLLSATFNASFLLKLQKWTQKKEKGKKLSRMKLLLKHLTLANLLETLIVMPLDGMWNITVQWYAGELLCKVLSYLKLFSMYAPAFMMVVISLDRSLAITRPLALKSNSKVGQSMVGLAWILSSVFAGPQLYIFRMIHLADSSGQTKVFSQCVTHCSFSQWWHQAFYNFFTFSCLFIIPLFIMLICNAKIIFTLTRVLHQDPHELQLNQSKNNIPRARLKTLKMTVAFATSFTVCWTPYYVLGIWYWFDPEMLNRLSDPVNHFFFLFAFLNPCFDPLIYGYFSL
Outline: (§1)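 Membranes from HEK 293 expressing mouse or human receptor, or rat pituitaries, incubated 1 h at RT with ~0.04–0.06 nM ¹²⁵I-[des-Gly¹⁰,D-Ala⁶]GnRH ethylamide and competitor (0.1–10,000 nM) in HEPES pH 7.4 with MgCl2, EDTA, BSA. Filtration onto PEI-soaked GF/C filters, scintillation counting; Ki from IC50 by Cheng–Prusoff.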

[2] = target: T2, mouse GnRH receptors (Mus musculus, UniProt Q01776); test: as above; conditions: Mouse GnRH receptor; competition with 125I-GnRH-A; Ki calculated from IC50 (Cheng et al.)
T2 construct: expressed in transfected cells; host or cells: HEK 293
T2 sequence (Q01776 1-327): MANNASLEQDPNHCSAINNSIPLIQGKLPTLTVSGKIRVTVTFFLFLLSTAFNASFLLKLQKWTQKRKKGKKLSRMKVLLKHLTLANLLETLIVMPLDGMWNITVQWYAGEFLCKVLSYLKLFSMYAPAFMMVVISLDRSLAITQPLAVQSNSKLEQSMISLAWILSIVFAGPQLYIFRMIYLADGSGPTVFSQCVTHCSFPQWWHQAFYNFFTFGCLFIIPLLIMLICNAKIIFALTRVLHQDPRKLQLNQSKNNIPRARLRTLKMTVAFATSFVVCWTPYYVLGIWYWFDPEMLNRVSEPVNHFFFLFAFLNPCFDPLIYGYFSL
Outline: as §1

[3] = target: T3, rat GnRH receptor (Rattus norvegicus, UniProt P30969); test: as above; conditions: competition with 125I-GnRH-A, Ki calculated from IC50 (Cheng et al.)
T3 construct: rat pituitaries (Pel Freez Biologicals, Rogers, Ark.) are homogenized in buffer A; tissue Pel Freez Biologicals; host or cells: rat pituitaries
T3 sequence (P30969 1-327): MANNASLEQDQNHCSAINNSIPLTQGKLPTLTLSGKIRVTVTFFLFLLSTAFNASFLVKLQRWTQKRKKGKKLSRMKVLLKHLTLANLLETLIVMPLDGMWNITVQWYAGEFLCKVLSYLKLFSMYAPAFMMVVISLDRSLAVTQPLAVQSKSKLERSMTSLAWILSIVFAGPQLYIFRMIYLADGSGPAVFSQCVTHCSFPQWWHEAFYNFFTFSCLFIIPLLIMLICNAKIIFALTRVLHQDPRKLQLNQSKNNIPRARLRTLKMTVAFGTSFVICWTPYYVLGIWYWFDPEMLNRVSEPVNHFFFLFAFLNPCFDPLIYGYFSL
Outline: as §1

[4] = In vitro metabolism: disappearance of parent compound in liver microsomes; type: in vitro ADME; conditions: human liver microsomes; 5 uM compound, 0.5 mg/ml microsomal protein, 2 mM NADPH, 30 minutes at 37° C.
Protocol: (§2) Human, rat, dog, and monkey liver microsomes are isolated by differential centrifugation. Specimens of human liver were obtained from the International Institute for the Advancement of Medicine (Scranton, Pa.). The disappearance of the parent compound is studied in a mixture containing 5 uM compound, 0.5 mg/ml microsomal protein, and 2 mM NADPH in 50 mM K Phosphate buffer, pH 7.4. Samples are incubated for 30 minutes at 37° C. The reaction is terminated by the addition of acetonitrile and compounds analyzed by LC-MS as described above.

[5] = In vitro metabolism: disappearance of parent compound in liver microsomes (male rat); type: in vitro ADME; conditions: 5 uM compound, 0.5 mg/ml microsomal protein, 2 mM NADPH, 30 minutes at 37° C.
Protocol: as §2

[6] = In vitro metabolism: disappearance of parent compound in liver microsomes (female rat); type: in vitro ADME; conditions: 5 uM compound, 0.5 mg/ml microsomal protein, 2 mM NADPH, 30 minutes at 37° C.
Protocol: as §2

[7] = Pharmacokinetics in female rats; type: in vivo, rat; conditions: for FR Fp.o.: AUCp.o./AUCi.v.; for Tmax: rat, plasma, po, dose and vehicle per footnote, read-out: FR Tmax hr
Protocol: Rats (male or female, 200-225 g) are prepared with indwelling jugular vein cannula as described by Harms et al., Applied Physiol. 36:391-398 (1974), and allowed to recover overnight with free access to the standard vivarium chow and water. […] […] The blood samples are withdrawn at specific times, plasma is immediately separated and compound extracted with ethyl acetate. The samples are analyzed by LC-MS using 30-90% gradient of ACN in 50 mM ammonium acetate.
The pharmacokinetic parameters are calculated using WinNonlin software (Scientific Consulting Inc.). The bioavailability is calculated as AUCp.o./AUCi.v., where AUCp.o. and AUCi.v. are areas under the plasma concentration-time curve after oral and i.v. administration, respectively.

[8] = 10 mg/kg as 5 mg/ml solution in 10% DMSO 105 cremophor 80% saline
[9] = 10 mg/kg as 5 mg/ml solution in 10% cremophor 90% saline

Compound	Ki [1] [nM]	Ki [2] [nM]	Ki [3] [nM]	Huma % p. 30′ [4] [%]	Male t % p. 30′ [5]	Fem. t % rem. 30′ [6] [%]	FR Fp.o. ([7]; 10 mg/kg as 5 mg/ml solution in 10% EtOH 10% cremophor 80% saline) [%^4]	Tmax [7] [min]	FR Fp.o. [7, 8] [%^2]	FR Fp.o. [7, 9] [%^3]
Cc1cc2c(cc1Cc1ccc(C(=O)NNc3cc(C)c4c(C)nn(C)c4n3)o1)C(C)(C)OC2(C)C [Example E1, 5-[(1,1,3,3,6-pentamethyl-1,3-dihydro-2-benzofuran-5-yl)methyl]-N′-(1,3,4-trimethyl-1H-pyrazolo[3,4-b]pyridin-6-yl)-2-furohydrazide]	4.2	12	9	43	96%	27	57	60	–	–
Cc1cc2c(cc1Cc1ccc(C(=O)NNc3nc(N)nc(C4CC4)n3)o1)C(C)(C)CCC2(C)C [Example C6, N′-(4-amino-6-cyclopropyl-1,3,5-triazin-2-yl)-5-[(3,5,5,8,8-pentamethyl-5,6,7,8-tetrahydro-2-naphthalenyl)methyl]-2-furohydrazide]	42	18	6	75	95%	–	–	–	<1	–
Cc1ccc(C(C)(C)C)cc1Cc1ccc(C(=O)NNc2cc(C)c3c(C)nn(C)c3n2)o1 [Example J7, 5-[5-(tert-butyl)-2-methylbenzyl]-N′-(1,3,4-trimethyl-1H-pyrazolo[3,4-b]pyridin-6-yl)-2-furohydrazide]	35	50	20	57	89%	9	–	30	4	–
CC(=O)c1c(NNC(=O)c2ccc(Cc3cc4c(cc3C)C(C)(C)OC4(C)C)o2)nc2c(c(C)nn2C)c1C [Example E2, N-(5-acetyl-1,3,4-trimethyl-1H-pyrazolo[3,4-b]pyridin-6yl)-5-[(1,1,3,3,6-pentamethyl-1,3-dihydro-2-benzofuran-5-yl)methyl]-2-furohydrazide]	300	–	–	30	–	–	–	–	–	–
Cc1cc2c(cc1Cc1ccc(C(=O)NNc3ccc(C(F)(F)F)cn3)o1)C(C)(C)CCC2(C)C [Example C9, 5-[(3,5,5,8,8-Pentamethyl-5,6,7,8-tetrahydro-2-naphthalenyl)methyl]-N′-[5-(trifluoromethyl)-2-pyridinyl]-2-furohydrazide]	61	30	47	61	94%	14	–	–	–	–
Cc1cc(C)c(Cc2ccc(C(=O)NNc3cc(C)c4c(C)nn(C)c4n3)o2)c(C)c1Br [Example J2]	550	–	–	–	–	–	–	30	–	6
COc1cc2c(cc1Oc1ccc(C(=O)NNc3cc(C)c4c(C)nn(C)c4n3)o1)C(C)(C)CC2=O [Example I5, 5-[(6-Methoxy-3,3-dimethyl-1-oxo-2,3-dihydro-1H-inden-5-yl)oxy]-N′-(1,3,4-trimethyl-1H-pyrazolo[3,4-b]pyridin-6-yl)-2-furohydrazide]	1210	–	–	58	–	–	–	–	–	–
COc1cc(C)c(Cl)c(C)c1Cc1ccc(C(=O)NNc2cc(C)c3c(C)nn(C)c3n2)o1 [Example J1]	450	–	–	–	99% and 95%	–	–	60	–	–
Cc1cc2c(cc1Oc1ccc(C(=O)NNc3cc(C)c4c(C)nn(C)c4n3)o1)C(C)(C)CCC2(C)C [Example F2]	3.3	8.2	8.5	65	93%	22	–	30	–	8
Cc1cc2c(cc1Cc1ccc(C(=O)NNc3ccc4ccccc4n3)o1)C(C)(C)CCC2(C)C [Example C5, 5-[(3,5,5,8,8-Pentamethyl-5,6,7,8-tetrahydro-2-naphthalenyl)methyl]-N′-(2-quinolinyl]-2-furohydrazide]	25	10	12	52	–	–	–	–	–	–
Cc1cc(Cl)c(C(C)C)c(Oc2ccc(C(=O)NNc3cc(C)c4c(C)nn(C)c4n3)o2)c1 [Example I3, 5-(3-Chloro-2-isopropyl-5-methylphenoxy)-N′-(1,3,4-trimethyl-1H-pyrazolo[3,40b]pyridin-6-yl)-2-furohydrazide]	5770	–	–	43	–	–	–	–	–	–
5-{[-3,5,5,6,8,8-Hexamethyl-5,6,7,8-tetrahydro-2-naphthalenyl]oxy}-N′-(1,3-dimethyl-1H-pyrazolo[3,4-b]pyridin-6-yl)-2-furo hydrazide [Example F1]	2	3.5	5.2	41	–	24	–	–	–	5
Cc1cc2c(cc1Oc1ccc(C(=O)NNc3cc(C)c4c(C)nn(C)c4n3)o1)C(C(C)C)C(C)C2(C)C (stereo not shown) [Example I2, 5-(3-lsopropyl-1,1,2,6-tetramethyl-indan-5-yloxy)-furan-2-carboxylic acid N′-(1,3,4-trimethyl-1H-pyrazolo[3,4-b]pyridin-6-yl)-hydrazide]	2.4	3.6	4.2	–	–	–	–	–	–	–
